According to US20080188563A1, “BLOOD FLUIDITY IMPROVING AGENT” (KAO CORPORATION, priority 2002, published 2008):

Experiments:
[1] = tested on: stroke-prone spontaneously hypertensive rats (SHRSP/Izm, male); assay: Evaluation of blood fluidity: whole blood transit time through microchannel array (MC-FAN) after 28 days oral administration; type: in vivo, rat; details: 50 mg/Kg/day oral; for Transit time: 7 μm microchannels, 20 cm water column
Method: Tests were started using stroke-prone spontaneously hypertensive rats (SHRSP/Izm, male) 6 weeks old after acclimating the rats 1 week or longer. The rats were all fed under the conditions of 20 to 26° C. temperature, 40 to 70% humidity and 12 hr. lighting time (from 6 a.m. to 6 p.m.).
The rats were administered with samples of the example of the present invention and samples of the comparative example once a day for continuous 28 days from a day when the rats reached 8 weeks of age. For administration, samples were orally administered by forced administration using a disposable polypropylene syringe attached with a metallic oral sonde. For the example, each sample contained a chlorogenic acid (supplied by Sigma Chemical Co., Ltd.) of 50 mg/Kg (body weight)/day, while the comparative example used the equal dose of injection grade water (supplied by Otsuka Pharmaceutical Co., Ltd., Tokyo, Japan) as samples. The preferred example also used the injection grade water as a medium for samples.
For feeds, the rats had been fed freely with a solid feed (CRF-1 supplied by Oriental Yeast Co., Ltd., Tokyo, Japan) for a period from the arrival to grouping of rats and with another solid feed (SP (a feed containing 0.4% common salt) supplied by the same manufacturer as above) for a period succeeding to the grouping. For drinking water, tap water was used in the period from the receipt to grouping of rats and 1% brine in the period after the grouping, respectively, for free uptake.
After administering rats with a specified sample for 28 continuous days, blood was sampled from each rat using a VENOJECT II vacuum blood collection tube of 7 mL size (available from Terumo Corporation, Tokyo, Japan) preinfused with 350 μL heparin as an anticoagulant (equivalent to 5% of whole blood). Upon sampling, the blood was agitated quickly to obtain blood samples for measurement. For blood measurement, a cellular microrheological measurement system was used (MC-FAN available from Hitachi Haramachi Electronics Co., Ltd., Ibaragi, Japan). The system incorporates an array of microchannels as a model of blood capillaries to measure the flowing characteristics of blood cells under constant differential pressure. As the model of blood capillaries, a silicon monocrystal basal plate having microchannels of 7 μm in width was used.
First, the time was measured for a 100 μL physiological saline solution to pass through the blood capillary model under differential pressure of 20 cm water column (the measured value to be used later for correction). Then the time was measured (in sec.) for a 100 μL each blood sample to pass through the blood capillary model under the same conditions. The time was measured every 10 μL fraction of sample flow. Each blood sample was microscopically observed as it flowed through the blood capillary model.

[2] = tested on: stroke-prone spontaneously hypertensive rats (SHRSP/Izm, male); assay: Evaluation of effects of improving cerebrovascular diseases: development of cerebral apoplexy, histopathological examination; type: in vivo, rat; details: 50 mg/Kg/day oral, 49 days
Method: Tests were started using stroke-prone spontaneously hypertensive rats (SHRSP/Izm, male) 6 weeks old after acclimating the rats I week or longer. The rats were all fed under the conditions of 20 to 26° C. temperature, 40 to 70% humidity and 12 hr. lighting time (from 6 a.m. to 6 p.m.). Rat was administered with samples of the preferred example of the present invention and samples of the comparative example once a day for continuous 49 days from a day when the rats reached 8 weeks of age. For administration, samples were orally administered by forced administration using a disposable polypropylene syringe attached with a metallic oral sonde. For the preferred example, each sample comprised a chlorogenic acid (supplied by Sigma Chemical Co., Ltd.) of 50 mg/Kg (body weight)/day, while the comparative example used the equal dose of injection grade water (supplied by Otsuka Pharmaceutical Co., Ltd., Tokyo, Japan) as samples. The preferred example also used the injection grade water as a medium for samples. For feeds, the rats were fed freely with a solid feed (CRF-1 supplied by Oriental Yeast Co., Ltd., Tokyo, Japan) for a period from the arrival to grouping of rats and with another solid feed (SP (a feed containing 0.4% common salt) supplied by the same manufacturer as above) for a period succeeding to the grouping. […]

For `O=C(/C=C/c1ccc(O)c(O)c1)O[C@@H]1C[C@](O)(C(=O)O)C[C@@H](O)[C@H]1O` [Preferred example, chlorogenic acid], the “Transit times versus comparative example (injection grade water), in words” value [1] was “shorter transit times”, the Transit time ([1]; blood volume passed 10 μL) was 4.87 s and the Transit time ([1]; blood volume passed 20 μL) was 9.67 s. For the same molecule, the Transit time ([1]; blood volume passed 30 μL) was 14.31 s, the Transit time ([1]; blood volume passed 40 μL) was 19.34 s and the Transit time ([1]; blood volume passed 50 μL) was 24.59 s. It also gave a Transit time ([1]; blood volume passed 60 μL) of 30.03 s, a Transit time ([1]; blood volume passed 70 μL) of 35.90 s and a Transit time ([1]; blood volume passed 80 μL) of 41.65 s. The Transit time ([1]; blood volume passed 90 μL) was 47.58 s, the Transit time ([1]; blood volume passed 100 μL) was 53.38 s and the “Development of cerebral apoplexy versus comparative example (injection grade water), in words” value [2] was “definitely suppressed development of cerebral apoplexy”. For the same molecule, the “Cerebral apoplexy developed (number of rats)” value ([2]; of 10 rats used) was 3.
